Assay results reported in US11583538B2, “Substituted pyrrolo[1,2-a]pyrazines and pyrrolo[1,2-a][1,4]diazepines as TREX1 inhibitors” (Venenum Biodesign, LLC, priority 2019, dated 2023).

Target: human TREX1 (Homo sapiens (Human), UniProt Q9NSU2)
Assay: TREX1 Exonuclease Assay
Type: biochemical
Experimental: For human TREX1, the nucleotide sequence of the gene construct was codon optimized for expression in the bacterial host. The sequence was incorporated into the pMAL-c5e vector (NEB) downstream of a solubility-promoting MBP (maltose binding protein) fusion partner. The fusion protein product was expressed in E. coli strain BL21 (DE3) (Millipore) and purified in a series of chromatographic steps. Initial steps were conducted using a dextrin sepharose affinity column followed by a Q-sepharose ion exchange column (both GE Healthcare). After the second column the MBP partner was removed by incubation with enterokinase (NEB). Further purification was carried out with the second application of a Q-sepharose column followed by a Superdex 75 (GE Healthcare) size exclusion column. Finally, a heparin sepharose column (GE Healthcare) was applied to remove contaminating nucleotides.
To evaluate the effect of compounds on TREX1 activity, test compounds were serially diluted (11-point, 3-fold) from 10 mM stock solutions and delivered to 384-well low-volume assay plates in 80 nL DMSO using an acoustic dispenser. Next, 4 μL of human TREX1 (0.5 nM), or murine TREX1 (1 nM), diluted in assay buffer (20 mM Tris pH 7.5, 5 mM MgCl2, 100 μg/mL BSA, 0.002% Triton X-100, 2 mM DTT), was added to the assay plate. After incubating for 30 minutes, 4 μL of labeled DNA oligonucleotide (500 nM) in assay buffer was added to initiate TREX1 exonuclease activity. The reaction was allowed to proceed for 45 minutes at room temperature prior to the addition of 4 μL of 150 mM EDTA to halt TREX1 activity.

Chain of human TREX1 (Q9NSU2 whole entry): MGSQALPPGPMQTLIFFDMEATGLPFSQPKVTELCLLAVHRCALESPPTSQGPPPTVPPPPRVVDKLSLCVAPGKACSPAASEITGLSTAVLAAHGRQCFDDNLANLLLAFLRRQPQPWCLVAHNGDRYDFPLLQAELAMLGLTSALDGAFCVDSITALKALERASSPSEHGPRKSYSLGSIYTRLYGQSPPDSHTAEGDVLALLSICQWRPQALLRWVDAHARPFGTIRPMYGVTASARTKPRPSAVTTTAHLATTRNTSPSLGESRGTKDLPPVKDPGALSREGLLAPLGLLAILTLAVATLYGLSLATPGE

`CC(C)Oc1c(CNC(=O)[C@@H](CCc2nnn[nH]2)N2CCC(CCc3ccccc3)N3C[C@H](N)C[C@H]3C2=O)ccc(Cl)c1Cl` (some centres unmarked) [Example 144] and `Cc1nnc(CC[C@H](C(=O)NCc2ccc(Cl)c(Cl)c2F)N2CCC(CCc3ccccc3)N3C[C@H](N)C[C@H]3C2=O)[nH]1` (some centres unmarked) [Example 140] cannot be ordered by IC50: < 1000 nM for the first, < 1000 nM for the second.

`CCOC(=O)N[C@@H]1C[C@H]2C(=O)N([C@H](CCC(=O)O)C(=O)NCc3ccc(Cl)c(Cl)c3)CCC(CCc3ccccc3)N2C1` (some centres unmarked) [Example 143] and `CCOC(=O)CC[C@H](C(=O)NCc1ccc(Cl)c(Cl)c1)N1CCC(CCc2ccccc2)N2C[C@H](NC(=O)OCC)C[C@H]2C1=O` (some centres unmarked) [Example 145] fall in the same range of IC50: 10000 to 100000 nM for the first, 10000 to 100000 nM for the second.

`NC(=O)C[C@H](C(=O)NCc1ccc(Cl)c(Cl)c1)N1CCC(CCc2ccccc2)N2C[C@H](N)C[C@H]2C1=O` (some centres unmarked) [Example 23] and `NC(=O)C[C@H](C(=O)NCc1ccc(Cl)c(Cl)n1)N1CCC(CCc2ccccc2)N2C[C@H](N)C[C@H]2C1=O` (some centres unmarked) [Example 36] cannot be ordered by IC50: < 1000 nM for the first, < 1000 nM for the second.

First: N[C@@H]1C[C@H]2C(=O)N([C@H]3CCCN(Cc4ccc(Cl)c(Cl)c4)C3=O)CCC(CCc3ccccc3)N2C1 (some centres unmarked) [Example 34]
Second: N[C@@H]1C[C@H]2C(=O)N([C@@H]3CCCN(C(=O)c4ccc(Cl)c(Cl)c4)C3)CCC(CCc3ccccc3)N2C1 (some centres unmarked) [Example 85]
The IC50 of the first is lower: < 1000 nM for the first, 10000 to 100000 nM for the second. The first is the more potent here.

First: N#CC[C@H](C(=O)N1CCOC[C@@H]1c1ccccc1)N1CCC(CCc2ccccc2)N2C[C@H](N)C[C@H]2C1=O (some centres unmarked) [Example 68]
Second: CCOC(=O)CC[C@H](C(=O)N1CCOC[C@H]1c1ccc(Cl)c(Cl)c1)N1CCC(CCc2ccccc2)N2C[C@H](N)C[C@H]2C1=O (some centres unmarked) [Example 96]
The IC50 of the first is higher: 10000 to 100000 nM for the first, < 1000 nM for the second.

`N[C@@H]1C[C@H]2C(=O)N([C@H](CCC(=O)O)C(=O)NCc3ccc(Cl)c(Cl)c3)CCC(COc3cccc(Cl)c3)N2C1` (some centres unmarked) [Example 76] and `N[C@@H]1C[C@H]2C(=O)N([C@H](CCC(=O)O)C(=O)NCc3ccc(Cl)c(Cl)c3)CCC(COc3ccccc3Cl)N2C1` (some centres unmarked) [Example 78] cannot be ordered by IC50: < 1000 nM for the first, < 1000 nM for the second.

`COc1cc(Cl)c(Cl)cc1CNC(=O)[C@@H](CCC(=O)O)N1CCC(CCc2ccccc2)N2C[C@H](N)C[C@H]2C1=O` (some centres unmarked) [Example 21] and `N[C@@H]1C[C@H]2C(=O)N([C@H](CCC(=O)O)C(=O)NCc3cc(Cl)c(Cl)cc3F)CCC(CCc3ccccc3)N2C1` (some centres unmarked) [Example 31] cannot be ordered by IC50: < 1000 nM for the first, < 1000 nM for the second.

Compared with `CC(C)C[C@H](C(=O)NS(=O)(=O)c1ccc(Cl)c(Cl)c1)N1CCC(CCc2ccccc2)N2C[C@H](N)C[C@H]2C1=O` (some centres unmarked) [Example 62], `CC(C)C[C@H](C(=O)NS(=O)(=O)c1ccccc1)N1CCC(CCc2ccccc2)N2C[C@H](N)C[C@H]2C1=O` (some centres unmarked) [Example 61] is lower in IC50: 1000 to 9990 nM for the first, < 1000 nM for the second.

`CCOC(=O)CC[C@H](C(=O)N1CCCC[C@H]1c1ccc(Cl)c(Cl)c1)N1CCC(CCc2ccccc2)N2C[C@H](N)C[C@H]2C1=O` (some centres unmarked) [Example 97] and `N[C@@H]1C[C@H]2C(=O)N([C@H](CCC(=O)O)C(=O)N3CCCC[C@H]3c3ccc(Cl)c(Cl)c3)CCC(CCc3ccccc3)N2C1` (some centres unmarked) [Example 26] cannot be ordered by IC50: < 1000 nM for the first, < 1000 nM for the second.

`N#CC[C@H](C(=O)NCc1ccc(Cl)cn1)N1CCC(CCc2ccccc2)N2C[C@H](N)C[C@H]2C1=O` (stereo partly drawn) [Example 63, (2R)-2-((8R,9aS)-8-amino-1-oxo-5-phenethylhexahydro-1H-pyrrolo[1,2-a][1,4]diazepin-2(3H)-yl)-N-((5-chloropyridin-2-yl)methyl)-3-cyanopropanamide.HCOOH] and `COC(=O)CC[C@H](C(=O)NCc1ccc(Cl)cn1)N1CCC(CCc2ccccc2)N2C[C@H](N)C[C@H]2C1=O` (some centres unmarked) [Example 100] cannot be ordered by IC50: < 1000 nM for the first, < 1000 nM for the second.

`COc1ccc(CNC(=O)[C@@H](CC(C)C)N2CCC(CCc3ccccc3)N3C[C@H](N)C[C@H]3C2=O)cc1` (some centres unmarked) [Example 59] and `CC(C)C[C@H](C(=O)NCc1ccc(C#N)cc1)N1CCC(CCc2ccccc2)N2C[C@H](N)C[C@H]2C1=O` (some centres unmarked) [Example 49] cannot be ordered by IC50: < 1000 nM for the first, < 1000 nM for the second.

`CCOC(=O)CC[C@H](C(=O)NCc1ccc(Cl)c(Cl)c1)N1CCC(CCc2ccccc2)N2C[C@H](N)C[C@H]2C1=O` (stereo partly drawn) [Example 89, (4R)-ethyl 4-((8R,9aS)-8-amino-1-oxo-5-phenethylhexahydro-1H-pyrrolo[1,2-a][1,4]diazepin-2(3H)-yl)-5-((3,4-dichlorobenzyl)amino)-5-oxopentanoate] and `COC(=O)CC[C@H](C(=O)NCc1ccc(Cl)c(Cl)c1)N1CCC(CCc2ccccc2)N2C[C@H](N)C[C@H]2C1=O` (stereo partly drawn) [Example 104, (4R)-methyl 4-((8R,9aS)-8-amino-1-oxo-5-phenethylhexahydro-1H-pyrrolo[1,2-a][1,4]diazepin-2(3H)-yl)-5-((3,4-dichlorobenzyl)amino)-5-oxopentanoate] cannot be ordered by IC50: < 1000 nM for the first, < 1000 nM for the second.

`COc1c(CNC(=O)[C@@H](CCC#N)N2CCC(CCc3ccccc3)N3C[C@H](N)C[C@H]3C2=O)ccc(Cl)c1Cl` (some centres unmarked) [Example 108] and `NC(=O)CC[C@H](C(=O)NCc1ccc(Cl)c(Cl)c1F)N1CCC(CCc2ccccc2)N2C[C@H](N)C[C@H]2C1=O` (some centres unmarked) [Example 107] cannot be ordered by IC50: < 1000 nM for the first, < 1000 nM for the second.

`N#CC[C@H](C(=O)NCc1ccc(Cl)c(C(F)(F)F)c1)N1CCC(CCc2ccccc2)N2C[C@H](N)C[C@H]2C1=O` (some centres unmarked) [Example 64] and `CC(C)C[C@H](C(=O)NCc1ccc(Cl)c(C(F)(F)F)c1)N1CCC(CCc2ccccc2)N2C[C@H](N)C[C@H]2C1=O` (some centres unmarked) [Example 55] cannot be ordered by IC50: < 1000 nM for the first, < 1000 nM for the second.

`CC(C)OC(=O)CC[C@H](C(=O)NCc1ccc(Cl)c(Cl)c1)N1CCC(CCc2ccccc2)N2C[C@H](N)C[C@H]2C1=O` (some centres unmarked) [Example 92] and `N[C@@H]1C[C@H]2C(=O)N([C@H](CCC(=O)NO)C(=O)NCc3ccc(Cl)c(Cl)c3)CCC(CCc3ccccc3)N2C1` (some centres unmarked) [Example 116] cannot be ordered by IC50: < 1000 nM for the first, < 1000 nM for the second.

`N[C@@H]1C[C@H]2C(=O)N([C@H](CCC(=O)O)C(=O)NCc3ccc(Cl)c(C(F)(F)F)c3)CCC(CCc3ccccc3)N2C1` (some centres unmarked) [Example 146] and `CC(=O)NCC[C@H](C(=O)NCc1ccc(Cl)c(Cl)c1)N1CCC(CCc2ccccc2)N2C[C@H](N)C[C@H]2C1=O` (some centres unmarked) [Example 131] cannot be ordered by IC50: < 1000 nM for the first, < 1000 nM for the second.

First: Cc1ccc(CNC(=O)[C@@H](CC(C)C)N2CCC(CCc3ccccc3)N3C[C@H](N)C[C@H]3C2=O)cc1Cl (some centres unmarked) [Example 57]
Second: CC(C)C[C@H](C(=O)NCc1cccc(Cl)c1)N1CCC(CCc2ccccc2)N2C[C@H](N)C[C@H]2C1=O (some centres unmarked) [Example 43]
The IC50 of the first is lower: < 1000 nM for the first, 1000 to 9990 nM for the second. The first is the more potent here.

`N#CC[C@H](C(=O)N1CCc2cc(Cl)c(Cl)cc2C1)N1CCC(CCc2ccccc2)N2C[C@H](N)C[C@H]2C1=O` (some centres unmarked) [Example 66] and `N#CC[C@H](C(=O)N1CCc2c(ccc(Cl)c2Cl)C1)N1CCC(CCc2ccccc2)N2C[C@H](N)C[C@H]2C1=O` (some centres unmarked) [Example 67] fall in the same range of IC50: 1000 to 9990 nM for the first, 1000 to 9990 nM for the second.

Compared with `N#CCC[C@H](C(=O)NCc1ccc(Cl)c(Cl)c1)N1CCC(COc2ccc(F)cc2)N2C[C@H](N)C[C@H]2C1=O` (some centres unmarked) [Example 110], `Cc1ccc(OCC2CCN([C@H](CCC(=O)O)C(=O)NCc3ccc(Cl)c(Cl)c3)C(=O)[C@@H]3C[C@@H](N)CN23)cc1` (some centres unmarked) [Example 73] is higher in IC50: < 1000 nM for the first, 1000 to 9990 nM for the second.

`CC(C)C[C@H](C(=O)NCc1ccccc1Cl)N1CCC(CCc2ccccc2)N2C[C@H](N)C[C@H]2C1=O` (some centres unmarked) [Example 44] and `CC(C)C[C@H](C(=O)NCc1ccc(C(F)(F)F)c(F)c1)N1CCC(CCc2ccccc2)N2C[C@H](N)C[C@H]2C1=O` (some centres unmarked) [Example 56] cannot be ordered by IC50: < 1000 nM for the first, < 1000 nM for the second.

`CS(=O)(=O)NCC[C@H](C(=O)NCc1ccc(Cl)c(Cl)c1)N1CCC(CCc2ccccc2)N2C[C@H](N)C[C@H]2C1=O` (some centres unmarked) [Example 132] and `N=C(N)NCCC[C@H](C(=O)NCc1ccc(Cl)c(Cl)c1)N1CCC(CCc2ccccc2)N2C[C@H](N)C[C@H]2C1=O` (some centres unmarked) [Example 24] cannot be ordered by IC50: < 1000 nM for the first, < 1000 nM for the second.

`CCOC(=O)CC[C@H](C(=O)NCc1cc(Cl)c(Cl)cc1OC)N1CCC(CCc2ccccc2)N2C[C@H](N)C[C@H]2C1=O` (some centres unmarked) [Example 103] and `CCOC(=O)CC[C@H](C(=O)NCc1cc(Cl)c(Cl)cn1)N1CCC(CCc2ccccc2)N2C[C@H](N)C[C@H]2C1=O` (some centres unmarked) [Example 99] cannot be ordered by IC50: < 1000 nM for the first, < 1000 nM for the second.

First: COc1ccc(OCC2CCN([C@H](CCC(=O)O)C(=O)NCc3ccc(Cl)c(Cl)c3)C(=O)[C@@H]3C[C@@H](N)CN23)cc1 (stereo partly drawn) [Example 72, (4R)-4-((8R,9aS)-8-amino-5-((4-methoxyphenoxy)methyl)-1-oxohexahydro-1H-pyrrolo[1,2-a][1,4]diazepin-2(3H)-yl)-5-((3,4-dichlorobenzyl)amino)-5-oxopentanoic Acid]
Second: N#CC[C@H](C(=O)NCc1ccc(Cl)c(Cl)c1)N1CCC(CCc2ccccc2)N2C[C@H](N)C[C@H]2C1=O (some centres unmarked) [Example 112]
The IC50 of the first is higher: 1000 to 9990 nM for the first, < 1000 nM for the second. The second is the more potent here.

First: N[C@@H]1C[C@H]2C(=O)N([C@H](CCC(=O)O)C(=O)N3CCC[C@H]3c3ccc(Cl)c(Cl)c3)CCC(CCc3ccccc3)N2C1 (some centres unmarked) [Example 27]
Second: N[C@@H]1C[C@H]2C(=O)N([C@H]3CCCN(C(=O)c4ccc(Cl)c(Cl)c4)C3)CCC(CCc3ccccc3)N2C1 (some centres unmarked) [Example 87]
The IC50 of the first is lower: < 1000 nM for the first, 10000 to 100000 nM for the second. The first is the more potent here.

`Cn1c(Cl)ccc(CNC(=O)[C@@H](CCC(=O)O)N2CCC(CCc3ccccc3)N3C[C@H](N)C[C@H]3C2=O)c1=O` (some centres unmarked) [Example 37] and `CN(Cc1ccc(Cl)c(Cl)c1)C(=O)[C@@H](CC#N)N1CCC(CCc2ccccc2)N2C[C@H](N)C[C@H]2C1=O` (some centres unmarked) [Example 65] cannot be ordered by IC50: < 1000 nM for the first, < 1000 nM for the second.
